Data: patent publication US9499790B2, “Method for promoting differentiation of pluripotent stem cells into cardiac muscle cells” (Kyoto University, priority 2010, dated 2016)

Columns and labels:
Type in all cases: cell-based
[1] = system: Wnt signaling target genes in human iPS cells; test: Gene expression analysis by DNA array and quantitative polymerase chain reaction; design: expressions of genes by DNA array (HOXA1, MSGN1, NKD1, T, TNFRSF11B, DKK1, DKK4, CDX2, MSX1, NODAL, FGF4 and others): dose or concentration left out as unconfirmed
Protocol: (in the order of the genes whose expression were reduced most 12 hours later) HOXA1, MSGN1, NKD1, T, TNFRSF11B, DKK1, DKK4, CDX2, MSX1, NODAL, FGF4, PAPPA, PRRX1, LRAT, CYP1B1, SLC34A2, AXIN2, LGL1, SPS, MIXL1, APCDD1 and DSEL. […] The analyzed genes were as follows: MSGN1, HOXA1; T, MIXL1; Dkk1, AXIN2; NODAL and FGF4 (all known as Wnt signaling target genes).

Monkey ES cells = test: Cardiac muscle cell differentiation of monkey ES cells, 6-well plate, GFP expression observed at day 14
Description: In the same manner as Example 2, the effects of promoting cardiac muscle cell differentiation were compared among KY02111 and N11474, known Wnt signaling inhibitors (IWP2, XAV939 and IWR1), proteins known to be effective in promoting cardiac muscle cell differentiation (G-CSF, IGFBP4, Dkk1 and cytokines (a mixture of bFGF, BMP4, VEGF, DKK1 and Activin A)).
The effect of BIO, a Wnt signaling activator, on the effect of promoting cardiac muscle cell differentiation of KY02111, XAV939 and IWP2 was analyzed. […]

Human iPS (IMR90-1) = test: Number of beating colonies of cardiac muscle cells; settings: KY02111 5 μM during day 4 to 14
Protocol: The effect of promoting differentiation of each of the ES/iPS cells into cardiac muscle cells were confirmed for N11474 and KY02111 with the GFP expression level and number of beating colonies used as the indicators. Human ES cell line (Kh-1 line) (Suemori, H., et al., Efficient establishment of human embryonic stem cell lines and long-term maintenance with stable karyotype by enzymatic bulk passage. Biochem Biophys Res Commun. 345(3), 926-32 (2006)) (incorporated herein by reference) was seeded in a 6-well plate (Asahi Glass/5816-006: Ezview culture plate) in 1.2×10^6 cells/well and cultured for 22 days, with BMP4 (10 ng/ml) added during day 0 to 4 of culture and N11474 (10 μM) or KY02111 (5 μM) added during day 4 to 14 of culture. […] KY02111 (5 μM) was added for 3 days during day 6 to 9 of cardiac muscle cell differentiation culture and the beating colonies of cardiac muscle cells were analyzed at day 9. […] The effect of BIO, a Wnt signaling activator, on the effect of promoting cardiac muscle cell differentiation of KY02111, XAV939 and IWP2 was analyzed. […] The synergistic effects between KY02111 and a known Wnt signaling inhibitor XAV939 or IWP2 in the promotion of cardiac muscle cell differentiation were analyzed.

Human iPS (253G1) = test: Number of beating colonies of cardiac muscle cells; settings: KY02111 5 μM during day 4 to 14
Protocol: (§1) The effect of promoting differentiation of each of the ES/iPS cells into cardiac muscle cells were confirmed for N11474 and KY02111 with the GFP expression level and number of beating colonies used as the indicators. Human ES cell line (Kh-1 line) (Suemori, H., et al., Efficient establishment of human embryonic stem cell lines and long-term maintenance with stable karyotype by enzymatic bulk passage. Biochem Biophys Res Commun. 345(3), 926-32 (2006)) (incorporated herein by reference) was seeded in a 6-well plate (Asahi Glass/5816-006: Ezview culture plate) in 1.2×10^6 cells/well and cultured for 22 days, with BMP4 (10 ng/ml) added during day 0 to 4 of culture and N11474 (10 μM) or KY02111 (5 μM) added during day 4 to 14 of culture. Human iPS cell lines (253G1, IMR90-1, IMR90-4 and RCHIPC0003) (Takahashi, K., et al., Induction of pluripotent stem cells from adult human fibroblasts by defined factors. Cell. 131(5), 861-72 (2007); Yu, J., et al., Induced pluripotent stem cell lines derived from human somatic cells. Science. 318(5858), 1917-20 (2007)) (these references are herein incorporated by reference) were cultured for the cardiac muscle cell differentiation in the same manner as for the human ES cells. The cardiac muscle cells from mouse ES cells (R1) were differentiated in accordance with the method described in the reference (Transient inhibition of BMP signaling by Noggin induces cardiomyocyte differentiation of mouse embryonic stem cells. Yuasa S, et al. Nat. Biotechnol. 2005 May; 23(5): 607-11; incorporated herein by reference). KY02111 (5 μM) was added for 3 days during day 6 to 9 of cardiac muscle cell differentiation culture and the beating colonies of cardiac muscle cells were analyzed at day 9. Monkey ES cells (CMK6.4) were cultured for cardiac muscle cell differentiation in the same manner as in the above (2).

Human iPS (RCHIPC0003) = test: Number of beating colonies of cardiac muscle cells; settings: KY02111 5 μM during day 4 to 14
Protocol: as §1

Monkey ES cells (CMK6.4) = test: Number of beating colonies of cardiac muscle cells; settings: Monkey ES (CMK6.4)
Protocol: as §1

mouse ES cells (R1) = test: Number of beating colonies of cardiac muscle cells; settings: KY02111 5 μM during day 6 to 9, analyzed at day 9
Protocol: as §1

[2] = KY02111 5 μM during day 4 to 8, singly

## COc1ccc(CCC(=O)Nc2nc3ccc(Cl)cc3s2)cc1OC [KY02111, 2-(3-(3,4-dimethoxyphenyl)propanamide)-6-chlorobenzothiazole]
[1]; 12 hours and 24 hours after the addition
  expressions of genes by DNA array (HOXA1, MSGN1, NKD1, T, TNFRSF11B, DKK1, DKK4, CDX2, MSX1, NODAL, FGF4 and others): reduced
[1]; FIG. 9
  expressions of MSGN1, HOXA1, T, MIXL1, Dkk1, AXIN2, NODAL and FGF4 (Wnt signaling target genes) by qPCR: reduced
[1]; confirmation of DNA array, FIG. 8
  expression of MSGN1, HOXA1, T, Dkk1 and FGF4 by qPCR: same results as the DNA array analysis
Monkey ES cells; 10 μM during day 4 to 10, GFP at day 14
  increase in the GFP expression level: 7400%
Monkey ES cells; 10 μM during day 4 to 10, GFP at day 14, FIG. 10
  effect of promoting cardiac muscle cell differentiation (GFP expression), comparison with Wnt signaling inhibitors and proteins: strongest effect of promoting cardiac muscle cell differentiation
Monkey ES cells; BIO 5 μM added together with the compound during day 4 to 10, GFP at day 14
  effect of BIO on the compound's effect of cardiac muscle cell differentiation (GFP expression): did not inhibit
Monkey ES cells; [2]
  increase in the GFP expression level versus Control (DMSO): about 30 times
  proportion of beating colonies: about 30%
  ratio of number of GFP colonies: ~73%
Human iPS (IMR90-1)
  Beating cardiac muscle cell differentiation efficiency (Control (DMSO) = 100%): 6100% (KY02111)
Human iPS (253G1)
  Beating cardiac muscle cell differentiation efficiency (Control (DMSO) = 100%): 1500% (KY02111)
Human iPS (RCHIPC0003)
  Beating cardiac muscle cell differentiation efficiency (Control (DMSO) = 100%): 100% (KY02111)
Monkey ES cells (CMK6.4)
  Beating cardiac muscle cell differentiation efficiency (Control (DMSO) = 100%): 1850% (KY02111)
Mouse ES cells (R1)
  Beating cardiac muscle cell differentiation efficiency (Control (DMSO) = 100%): 200% (KY02111)
